≈ marks a conversion by molar mass, not a printed value. Where a name gives a salt, the structure may show the parent alone. Read-outs that look alike come from different tables or passages of the source. Starred links: 1 amine or outer side, 2 acyl side, 3 side chain; linkers in the order of their positions; H or OH if unused. Positions of bridges follow the written chain, without caps; N, C: chain ends. Non-standard residues stand in square brackets, D forms with d. Residues, ends and D or L forms follow the SMILES beside them. Chains are numbered I, II in the order given. Actinocin(9to1) = Cc1c2oc3c(C)ccc(C(=O)[*:1])c3nc-2c(C(=O)[*:2])c(N)c1=O; NMeV = CN[C@H](C(=O)O)C(C)C; Sar = CNCC(=O)O
Experiments:
[1] = tested on: B. burgdorferi (growing, strain B31); assay: MIC determination, standard microdilution method; type: cell-based, Borrelia burgdorferi
[2] = tested on: round body form of B. burgdorferi; assay: SYBR Green I/PI assay on amoxicillin-induced round body form
[3] = tested on: stationary phase B. burgdorferi persisters (strain B31); assay: NCI compound library screen, SYBR Green I/PI assay (plate reader); settings: for Residual viable cells (SYBR Green I/PI assay): 50 μM, seven day old stationary phase culture; for Residual viable cells (SYBR Green I/PI assay) / Residual viable cells (%) 20 μM (SYBR Green I/PI assay): 7 days; for viability at 50 µM / viability at 20 µM: Borreliella burgdorferi, 168 h; for Residual viable cells (%) 20 μM (SYBR Green I/PI assay): seven day old stationary phase
[4] = tested on: stationary phase B. burgdorferi persisters (strain B31); assay: NCI compound library rescreen, epifluorescence microscope counting; settings: for Residual viable cells (epifluorescence microscope counting) / Residual viable cells (%) 50 μM (epifluorescence microscope counting): 50 μM; for Residual viable cells (epifluorescence microscope counting): seven day old stationary phase culture; for Residual viable cells (epifluorescence microscope counting) / Residual viable cells (%) 20 μM (epifluorescence microscope counting) / Residual viable cells (%) 50 μM (epifluorescence microscope counting): 7 days; for Activity against persisters (residual viable cell percentage): stationary phase persisters; for viability at 50 µM / viability at 20 µM: Borreliella burgdorferi, 168 h; for viability at 20 µM: read-out: Residual viable cells (%) 20 μM (epifluorescence microscope counting); for Residual viable cells (%) 20 μM (epifluorescence microscope counting) / Residual viable cells (%) 50 μM (epifluorescence microscope counting): seven day old stationary phase
[5] = read-out: Residual viable cells (SYBR Green I/PI assay), 50 μM, seven day old stationary phase culture, 7 days
[6] = read-out: Activity against persisters (residual viable cell percentage)
[7] = read-out: Residual viable cells (epifluorescence microscope counting)
[8] = read-out: Residual viable cells (%) 20 μM (SYBR Green I/PI assay), 20 μM, seven day old stationary phase, 7 days
[9] = read-out: Residual viable cells (%) 50 μM (epifluorescence microscope counting)
[10] = read-out: Residual viable cells (%) 20 μM (SYBR Green I/PI assay)
[11] = read-out: Residual viable cells (SYBR Green I/PI assay)
[12] = Borreliella burgdorferi, growing B. burgdorferi, read-out: MIC

SMILES: Cc1ncc([N+](=O)[O-])n1CCO [Metronidazole]
- sensitivity of log phase / multiplying B. burgdorferi (words, FIG. 12) ([1]; MIC test): less potent
- viability at 50 µM ([2]; Borreliella burgdorferi, 168 h, read-out: Residual viable cells (SYBR Green I/PI assay)): 33%
- Ratios of green/red fluorescence, Primary screening ([2]; round body form, 50 μM, 7 days): 6.23
- Ratios of green/red fluorescence, Rescreening (first column) ([2]; round body form, 50 μM, 7 days): 6.30
- Ratios of green/red fluorescence, Rescreening (second column) ([2]; round body form, 50 μM, 7 days): 6.31

SMILES: Cc1c2oc3c(C)ccc(C(=O)N[C@@H]4C(=O)N[C@H](C(C)C)C(=O)N5CCC[C@H]5C(=O)N(C)CC(=O)N(C)[C@@H](C(C)C)C(=O)O[C@@H]4C)c3nc-2c(C(=O)N[C@@H]2C(=O)N[C@H](C(C)C)C(=O)N3CCC[C@H]3C(=O)N(C)CC(=O)N(C)[C@@H](C(C)C)C(=O)O[C@@H]2C)c(N)c1=O [NSC3053, Dactinomycin] (I: T[dV]P[Sar][NMeV] / II: T[dV]P[Sar][NMeV]; ester I:1-I:C, II:1-II:C; linker I:N-II:N via Actinocin(9to1))
- MIC ([1]; growing B. burgdorferi, listed as Dactinomycin): ≦0.78 μg/mL
- MIC ([1]; growing B. burgdorferi, listed as dactinomycin): ≤ 0.78 µg/mL
- Residual viable cells (SYBR Green I/PI assay) [3]: 37%
- Residual viable cells (epifluorescence microscope counting) [4]: 30%
- Activity against persisters (residual viable cell percentage) [4]: 30%

SMILES: CO[C@@]12[C@H](COC(N)=O)C3=C(C(=O)C(C)=C(N)C3=O)N1C[C@@H]1N[C@@H]12 [NSC26980, Mitomycin]
- MIC ([1]; Borreliella burgdorferi): ≤ 0.21 µg/mL
- MIC ([1]; growing B. burgdorferi): ≦0.21 μg/mL
- viability at 50 µM [3, 5]: 20%
- viability at 50 µM [4, 6]: 25%
- viability at 50 µM [4, 7]: 25%

SMILES: CCN(CC)c1ccc2cc3ccc(=[N+](CC)CC)cc-3oc2c1.[Cl-] [NSC44690, Pyronin B]
- MIC ([1]; growing B. burgdorferi): 1.8 to 3.6 µg/mL

SMILES: CCCCCC1=C/C(=C/c2[nH]c(-c3ccc[nH]3)cc2OC)N=C1C [NSC47147, Prodigiosin]
- MIC ([1]; Borreliella burgdorferi): ≤ 0.2 µg/mL
- MIC ([1]; growing B. burgdorferi): ≦0.2 μg/mL
- viability at 20 µM [3, 8]: 0%
- viability at 50 µM [3, 5]: 0%
- viability at 50 µM [4, 6]: 24%
- viability at 20 µM [4]: 45%
- viability at 50 µM [4, 9]: 24%
- viability at 50 µM [4, 7]: 24%

SMILES: Cc1cc(C(=C2C=CC(=N)C=C2)c2ccc(N)cc2)ccc1N [NSC93739, 2-Methyl-4,4′-[(4-imino-2,5-cyclohexadien-1-ylidene)methylene]dianiline hydrochloride]
- viability at 20 µM [3, 10]: 0%
- viability at 50 µM [3, 11]: 0%
- viability at 20 µM [4]: 77%
- viability at 50 µM [4, 9]: 43%
- viability at 50 µM [4, 7]: 43%

SMILES: CC[C@@]1(O)C[C@H](O[C@H]2C[C@H](N(C)C)[C@H](O)[C@H](C)O2)c2c(O)c3c(c(O)c2[C@H]1O[C@H]1C[C@H](N(C)C)[C@H](O)[C@H](C)O1)C(=O)c1cccc(O)c1C3=O [NSC136044, Rhodomycin A]
- Residual viable cells (%) 20 μM (SYBR Green I/PI assay) [3]: 5%
- Residual viable cells (SYBR Green I/PI assay) [3]: 0%
- Residual viable cells (%) 20 μM (epifluorescence microscope counting) [4]: 21%
- Residual viable cells (epifluorescence microscope counting) [4]: 22%
- Residual viable cells (%) 50 μM (epifluorescence microscope counting) [4]: 21%

SMILES: O/N=C(/c1ccccc1)c1ccc2c3c(cccc13)CC2 [NSC137399, 1-(1,2-Dihydro-5-acenaphthylenyl)-N-hydroxy-1-phenylmethanimine]
- viability at 50 µM [3, 11]: 51%
- viability at 50 µM [4, 7]: 41%

SMILES: COc1cccc2c1C(=O)c1c(O)c3c(c(O)c1C2=O)C[C@@](O)(/C(C)=N\O)C[C@@H]3OC1CC(N)C(O)C(C)O1.Cl (stereo partly drawn) [NSC143491, Daunomycin 3-oxime hydrochloride]
- MIC [1, 12]: ≤ 0.36 µg/mL
- viability at 50 µM [3, 11]: 0%
- viability at 50 µM [4, 6]: 6%
- viability at 50 µM [4, 7]: 6%

SMILES: O=C1c2cccc(Sc3ccccc3)c2C(=O)c2c(Sc3ccccc3)cccc21 [NSC156516, 1,8-Di(phenylthio)anthraquinone]
- viability at 50 µM [3, 5]: 46%
- viability at 50 µM [4, 7]: 50%

SMILES: NC(=O)OCC1=C(COC(N)=O)C(=O)c2c(O)ccc(O)c2C1=O [NSC224124, (5,8-dihydroxy-1,4-dioxo-1,4-dihydronaphthalene-2,3-diyl)dimethanediyl dicarbamate]
- viability at 20 µM [3, 10]: 54%
- viability at 50 µM [3, 11]: 32%
- viability at 20 µM [4]: 77%
- viability at 50 µM [4, 9]: 31%
- viability at 50 µM [4, 7]: 31%

SMILES: COc1cccc2c1C(=O)c1c(O)c3c(c(O)c1C2=O)C[C@@](O)(C(C)=O)C[C@@H]3OC1CC(N(C)C)C(O)C(C)O1 (stereo partly drawn) [NSC258812, Dimethyldaunomycin hydrochloride]
- viability at 20 µM [3, 10]: 0%
- viability at 50 µM [3, 11]: 0%
- viability at 20 µM [4]: 10%
- viability at 50 µM [4, 9]: 10%
- viability at 50 µM [4, 7]: 10%

SMILES: CC[C@@]1(O)C[C@H](O[C@H]2C[C@H](N(C)C)[C@H](O)[C@H](C)O2)c2c(cc3c(c2O)C(=O)c2c(O)ccc(O)c2C3=O)[C@H]1C(=O)OC [NSC267229, Pyrromycin]
- MIC ([1]; growing B. burgdorferi): 0.37 to 0.73 µg/mL
- Residual viable cells (%) 20 μM (SYBR Green I/PI assay) [3]: 6%
- Residual viable cells (SYBR Green I/PI assay) [3]: 0%
- Residual viable cells (%) 20 μM (epifluorescence microscope counting) [4]: 20%
- Residual viable cells (epifluorescence microscope counting) [4]: 21%
- Residual viable cells (%) 50 μM (epifluorescence microscope counting) [4]: 21%
- Activity against persisters (residual viable cell percentage) [4]: 21%

SMILES: CC1OC(CC(=O)O)CC2=C1C(=O)c1c(O)cccc1C2=O (stereo not drawn) [NSC267461, Nanaomycin]
- MIC [1, 12]: 0.76 to 1.57 µg/mL (≈ 2.51 to 5.19 µM)
- viability at 20 µM [3, 8]: 39%
- viability at 50 µM [3, 5]: 34%
- viability at 50 µM [4, 6]: 26%
- viability at 20 µM [4]: 45%
- viability at 50 µM [4, 9]: 26%
- viability at 50 µM [4, 7]: 26%
